Patent US4423221A, “7-Carboethoxy-morphinan-6-one compounds” (SISA Pharmaceutical Laboratories, Inc., priority 1982, dated 1983)

Experiments:
rats = assay: Narcotic antagonist activity, modified rat tail flick test (against ED80 dose of morphine); type: in vivo, male albino Wistar rats; details: ip, test drug intraperitoneally, ED80 dose of morphine s.c. 10 min later, retest 20 min after morphine, read-out: AD50 (dose required to inhibit the effect of morphine by 50%)
Method: (B) Narcotic antagonist activity in rats (modified rat tail flick test).
Evaluation of Narcotic Antagonist Activity
The narcotic antagonist effect of the test compound was determined by a modification of the rat tail flick procedure of Harris and Pierson (J. Pharmacol. Exp. Ther., 143:141 [1964]).
Male albino Wistar rats (100-120 g) were used for this study. A rat's tail is so placed so as to cover a photocell. Heat is applied by a lamp in a reflector with a timer being connected to the lamp and photocell so that the timer goes on when the light is turned on and is turned off when the photocell is uncovered. A rheostat, incorporated into a heating lamp, is used to adjust the intensity of the light falling on the tail of the rat such that the rat's control reaction time is from 2 to 4 seconds. Animals with a control reaction time outside this range are rejected. The rheostat adjustment is made only if a significant proportion (1 out of every 10 rats) of the reaction times are outside the range of 2 to 4 seconds. Groups of 5 rats were used, and 2 control times were determined at 60 and 30 minutes prior to […] injection of the drug.
At least 30 minutes after the last control run the test drug was given intraperitoneally. This was followed 10 minutes later by an ED80 dose of morphine subcutaneously. The animals were retested at 20 minutes after the morphine injection. Control animals were given vehicle and morphine only. The data were calculated as follows: [formula]
The data were plotted on log-probit paper and AD50 values, i.e., the dose required to inhibit the effect of morphine by 50% within 95% confidence limits, were determined by the method of Lichtfield and Wilcoxon.

mice = assay: Acetic acid mouse writhing test (analgesic effects); type: in vivo, male CD-1 mice; details: subcutaneous, 0.5% acetic acid i.p. 15 min post drug, writhes counted over 20 min; for ED50: Mus musculus, sc, read-out: ED50 (dose required to reduce the number of writhes by 50%)
Method: (A) Analgesic effects upon mice (acetic acid writhing test).
Acetic Acid Mouse Writhing Test
Analgesic effects of the test compounds were determined in mice by use of the acetic acid writhing test described by B. A. Whittle, Brit. J. Pharmacol., 22:246 (1964). In this test, at least 3 groups of 5 male CD-1 mice each were given subcutaneous doses of the test drug dissolved in distilled water. In all cases, 0.4 milliliters of a 0.5% V/V acetic acid in distilled water solution was administered intraperitoneally 15 minutes post drug. The number of writhes in a 20 minute interval beginning 5 minutes after the acetic acid injection were determined and compared with the number of writhes in a control group which had received only acetic acid.
Percent inhibition of writhing was calculated as: [formula]
The ED50 dose, i.e., the dose required to reduce the number of writhes by 50%, was determined graphically from a plot of % inhibition as a probit verus log dose. Confidence limits of 95% were calculated on the basis of those results falling in the range 16-84% inhibition. See Lichtfield, J. T. and Wilcoxon, F., J. Pharmacol. Exp. Ther., 96, 99-113 (1949).

| Structure (SMILES) | ED50 (rats) [mg/kg] | ED50 (mice) [mg/kg] | ED50 (dose required to reduce the number of writhes by 50%) (mice) |
| --- | --- | --- | --- |
| CCOC(=O)C1C[C@H]2[C@H]3Cc4ccc(OC)cc4[C@@]2(CCN3CC2CC2)CC1=O (stereo partly drawn) [TR-5299, 7-carboethoxy-17-cyclopropylmethyl-3-methoxy-morphinan-6-one] | 13 | > 10 |  |
| CCOC(=O)C1CC2C3Cc4ccc(OC)cc4C2(CCN3CC2CCC2)CC1=O (stereo not drawn) [TR-5300, 7-carboethoxy-17-cyclobutylmethyl-3-methoxy-morphinan-6-one] | 13 |  | IA 10.0 |
| CCOC(=O)C1C[C@H]2[C@H]3Cc4ccc(O)cc4[C@@]2(CCN3CC2CCC2)CC1=O (stereo partly drawn) [TR-5307, 7-carboethoxy-17-cyclobutylmethyl-3-hydroxy-morphinan-6-one] | > 10 | 1.15 |  |
| CCOC(=O)C1C[C@H]2[C@H]3Cc4ccc(O)cc4[C@@]2(CCN3CC2CC2)CC1=O (stereo partly drawn) [TR-5308, 7-carboethoxy-17-cyclopropylmethyl-3-hydroxy-morphinan-6-one] | 3.12 | 4.9 |  |
| CCOC(=O)C1C[C@H]2[C@H]3Cc4ccc(OC)cc4[C@@]2(CCN3C)CC1=O (stereo partly drawn) [TR-5318, 7-carboethoxy-3-methoxy-17-methylmorphinan-6-one] |  | 4.6 |  |
| CCOC(=O)C1C[C@H]2[C@H]3Cc4ccc(O)cc4[C@@]2(CCN3C)CC1=O (stereo partly drawn) [TR-5320, 7-carboethoxy-3-hydroxy-17-methylmorphinan-6-one] | 3.6 | 0.72 |  |
| CCOC(=O)C1C[C@@H]2[C@H]3Cc4ccc(OC)cc4[C@@]2(CCN3C)CC1=O (stereo partly drawn) [TR-5336, 7-carboethoxy-3-methoxy-17-methyl-14α-morphinan-6-one] |  | > 10 |  |
| CCOC(=O)C1C[C@@H]2[C@H]3Cc4ccc(OC)cc4[C@@]2(CCN3CC2CC2)CC1=O (stereo partly drawn) [TR-5337, 7-carboethoxy-17-cyclopropylmethyl-3-methoxy-14α-morphinan-6-one] | > 10 |  | IA 10.0 |
| CCOC(=O)C1C[C@@H]2[C@H]3Cc4ccc(O)cc4[C@@]2(CCN3C)CC1=O (stereo partly drawn) [TR-5338, 7-carboethoxy-3-hydroxy-17-methyl-14α-morphinan-6-one] | 0.7 | 0.6 |  |
| CCOC(=O)C1C[C@@H]2[C@H]3Cc4ccc(O)cc4[C@@]2(CCN3CC2CC2)CC1=O (stereo partly drawn) [TR-5339, 7-carboethoxy-17-cyclopropylmethyl-3-hydroxy-14α-morphinan-6-one] | 2.54 | 3.7 |  |
